Among the data in US6514964B1, “Fused cycloheptane and fused azacycloheptane compounds and their methods of use” (Amgen Inc., priority 1999, dated 2003) are IC50 values, retold here.

Where only a bound is given, the exact number is not on record here.

One may read the IC50 as the concentration at which inhibition is half-maximal. The low end stands for higher potency, the high end for lower potency.

This experiment relates to human umbilical cord endothelial cells (HUVEC). Description: HUVEC proliferation assay and/or HUVEC adhesion assay. In kind it is cell-based. As to conditions: bound stated for the listed compounds. On the procedure: HUVEC Proliferation Assay
1. Coat 3 NUNC polystyrene 96 well plate (VWR, 62409-120; lids 62409-118) with vitronectin (purified internally), fibronectin (Collaborative Biomed 40008A) or fibrinogen (Calbiochem 341578) 50 ng/well in 50 μl PBS, 1 hr @ RT.
a. rinse with 5 mls PBS (no Ca, Mg)
3. Rinse vitronectin plates 1× in 200 μl PBS −/− and add 3000 cells per well in 100 ul growth medium (EBM2 (Clonetics, CC-3156)+EGM2 bullet kit (CC-4176)).
4. Incubate 24 hours at 37° C. to allow attachment.
5. Remove growth medium and add 100 μl growth medium+drugs (25 μM and down by five fold steps in DMSO-0.25% final DMSO concentration).
6. Incubate for 3 days changing media (+drugs).
7. Remove non-adherent cells on Friday with Raindance 12 well plate washer.
8. Wash twice with 200 μl PBS (+Mg & Ca).
9. Tap out excess liquid.
10. Freeze @ −70° C. for 30 minutes.
11. Thaw plate and add 150 μl CyQuant fluorescent dye (Molecular Probes C-7026).
12. Read after 4 minutes @ 485λ (excitation), 530λ (emission).
1. Coat 2 NUNC polystyrene 96 well plates (VWR, 62409-120; lids 62409-118) with 50 μl vitronectin (purified internally) at 50 ng/well in PBS (−Mg & Ca), for 1 hour @ 37° C.
2. Rinse with PBS & block with 150 μl PBS/1% BSA (Sigma A8918), 1 hour at @ 37° C.
3. Prepare drug dilutions:
a. 400 fold concentrate in 100% DMSO
b. 0.25% DMSO [assay]final
c. 10 mM & down (25 μMfinal & down)
d. dilute 1 μl of 400 fold conc into 200 μl adhesion media
a. rinse with 5 ml PBS (no Ca, Mg)
6. Rinse blocking buffer from assay plate and add 50 μl of drug dilutions.
7. Resuspend cells in adhesion media, count and add 2e4 cells/well in 50 μl (4e5/ml).
8. Incubate 60 minutes @ 37° C.
9. Remove non-adherent cells with Raindance 12 well plate washer.
10. Wash twice with 200 μl PBS (+Mg & Ca)
11. Tap out excess liquid.
12. Freeze @ −70° C. for 30 minutes to overnite.
13. Thaw plate and add 150 μl CyQuant fluorescent dye (Molecular Probes C-7026).
14. Read after 2-5 minutes @ 485λ (excitation), 530λ (emission).
Adhesion medium: Media 199 (which contains […] and 0.8 mM MgSO4), 0.5% BSA, 10 mM HEPES, 1 mM MgCl2, and 1 mM MnCl2
Consider `CC(C)N(CCc1ccc2c(n1)NCCC2)C(=O)c1cn2c(n1)Cc1ccccc1C(CC(=O)O)C2` (stereo not drawn) [Example 64, 2-{2-[N-(methylethyl)-N-(2-(1,2,3,4-tetrahydropyridino[2,3-b]pyridin-7-yl)ethyl)carbamoyl]-4H,5H,10H-benzo[d]imidazolo[1,2-a]azepin-5-yl}acetic acid], for which the IC50 is ≤ 30 µM.

With `CC(C)N(Cc1cnc2c(c1)CCCN2)C(=O)c1cn2c(n1)Cc1ccccc1C(CC(=O)O)C2` (stereo not drawn) [Example 65, 2-{2-[N-(methylethyl)-N-(1,2,3,4tetrahydropyridino[2,3-b]pyridine-6-ylmethyl)carbamoyl]-4H,5H,10H-benzo[d]imidazolo[1,2-a]azepin-5-yl}acetic acid], the IC50 is ≤ 30 µM.

With `O=C(O)CC1Cn2cc(C(=O)NCc3cnc4c(c3)CCCN4)nc2Cc2ccccc21` (stereo not drawn) [Example 66, 2-{2-[N-(1,2,3,4-tetrahydropyridino [2,3-b]pyridin-6-ylmethyl)carbamoyl]-4H,5H,10H-benzo[d]imidazolo[1,2-a]azepin-5-yl}acetic acid], the IC50 was ≤ 30 µM.

With `CN(CCCNc1ccccn1)C(=O)c1cn2c(n1)Cc1ccccc1C(CC(=O)O)C2` (stereo not drawn) [Example 67, 2-(2-{N-methyl-N-[3-(2-pyridylamino)propyl]carbamoyl}-4H,5H,10H-benzo[d]imidazolo[1,2-a]azepin-5-yl)acetic acid], the IC50 was ≤ 30 µM.

Consider `COc1ccc2c(c1)CN(C(=O)NCCCc1ccc3c(n1)NCCC3)CCC2CC(=O)O` (stereo not drawn) [Example 71, 2-(8-methoxy-2-(N-(3-(1,2,3,4-tetrahydropyridino[2,3,b]pyridin-7-yl)propyl)carbamoyl)-1H,3H,4H,5H-benzo[e]azaperhydroepin-5-yl) acetic acid], for which the IC50 is ≤ 30 µM.

Take `O=C(O)CC1CCN(C(=O)NCCCc2ccc3c(n2)NCCC3)Cc2cc(OCc3ccccc3)ccc21` (stereo not drawn) [Example 72]: the IC50 is ≤ 30 µM.

As for `O=C(O)CC1CCN(C(=O)NCCCc2ccc3c(n2)NCCC3)Cc2cc(-c3ccccc3)ccc21` (stereo not drawn) [Example 73, 2-(8-phenyl-2-(N-(3-(1,2,3,4-tetrahydropyridino[2,3,b]pyridin-7-yl)propyl)carbamoyl)-1H,3H,4H,5H-benzo[e]azaperhydroepin-5-yl) acetic acid], the IC50 is ≤ 30 µM.

On to `O=C(O)CC1CCN(C(=O)NCCCCNC2=NCCN2)Cc2ccccc21` (stereo not drawn) [Example 75, 2-(2-(N-(4-(4,5-dihydroimidazo-2-yl)aminobut-1-yl)carbamoyl)-1H,3H,4H-5H-benzo[e]azapin-5-yl)acetic acid], for which the IC50 was ≤ 30 µM.

With `O=C(O)CC1CCN(C(=O)NCCCc2ccc3c(n2)NCCC3)Cc2cc(Cl)ccc21` (stereo not drawn) [Example 78, 2-{8-Chloro-2-[N-(3-(1,2,3,4-tetrahydropyridino[2,3-b]pyridin-7-yl)propyl)carbamoyl]-1H,3H,4H,5H-benzo[e]azepin-5-yl}acetic acid], the IC50 was ≤ 30 µM.

With `O=C(O)CC1CCN(C(=O)NCCCc2ccc3c(n2)NCCC3)Cc2cc(Br)ccc21` (stereo not drawn) [Example 79, 2-{8-Bromo-2-[N-(3-(1,2,3,4-tetrahydropyridino[2,3-b]pyridin-7-yl)propyl)carbamoyl]-1H,3H,4H,5H-benzo[e]azepin-5-yl}acetic acid], the IC50 was ≤ 30 µM.

On to `O=C(O)CC1CCN(C(=O)NCCCc2ccc3c(n2)NCCC3)Cc2cc(Br)c(Br)cc21` (stereo not drawn) [Example 80, 2-{7,8-Dibromo-2-[N-(3-(1,2,3,4-tetrahydropyridino[2,3-b]pyridin-7-yl)propyl)carbamoyl]-1H,3H,4H,5 H-benzo[e]azepin-5-yl}acetic acid], for which the IC50 is ≤ 30 µM.

Consider `CS(=O)(=O)Nc1ccc2c(c1)CN(C(=O)NCCCc1ccc3c(n1)NCCC3)CCC2CC(=O)O` (stereo not drawn) [Example 81, 2-{8-[(Methylsulfonyl)amino]-2-[N-(3-(1,2,3,4-tetrahydropyridino[2,3-b]pyridin-7-yl)Propyl)carbamoyl]-1H,3H,4H,5H-benzo[e]azepin-5-yl}acetic acid], for which the IC50 is ≤ 30 µM.

Regarding `O=C(O)CC1CCN(C(=O)NCCCc2ccc3c(n2)NCCC3)Cc2cc(NS(=O)(=O)c3ccccc3)ccc21` (stereo not drawn) [Example 82, 2-{8-[(Phenylsulfonyl)amino]-2-[N-(3-(1,2,3,4-tetrahydropyridino[2,3-b]pyridin-7-yl)propyl)carbamoyl]-1H,3H,4H,5H-benzo[e]azepin-5-yl}acetic acid], the half-inhibitory concentration (IC50) was ≤ 30 µM.

Turning to `O=CNc1ccc2c(c1)CN(C(=O)NCCCc1ccc3c(n1)NCCC3)CCC2CC(=O)O` (stereo not drawn) [Example 83, 2-{8-Carbonylamino-2-[N-(3-(1,2,3,4-tetrahydropyridino[2,3-b]pyridin-7-yl)propyl)carbamoyl]-1H,3H,4H,5H-benzo[e]azepin-5-yl}acetic acid], the IC50 was ≤ 30 µM.

Consider `CN(C)c1ccc2c(c1)CN(C(=O)NCCCc1ccc3c(n1)NCCC3)CCC2CC(=O)O` (stereo not drawn) [Example 84, 2-{8-(Dimethylamino)-2-[N-(3-(1,2,3,4-tetrahydropyridino[2,3-b]pyridin-7-yl)propyl)carbamoyl]-1H,3H,4H,5H-benzo[e]azepin-5-yl}acetic acid], for which the half-inhibitory concentration (IC50) was ≤ 30 µM.
